Experimental findings from ChEMBL document CHEMBL5653615 (J Biol Chem, 2013) are described below.

The target of experiment [1] is T1, Dual specificity tyrosine-phosphorylation-regulated kinase 4 (Homo sapiens) (UniProt Q9NR20).
T1 sequence (whole entry): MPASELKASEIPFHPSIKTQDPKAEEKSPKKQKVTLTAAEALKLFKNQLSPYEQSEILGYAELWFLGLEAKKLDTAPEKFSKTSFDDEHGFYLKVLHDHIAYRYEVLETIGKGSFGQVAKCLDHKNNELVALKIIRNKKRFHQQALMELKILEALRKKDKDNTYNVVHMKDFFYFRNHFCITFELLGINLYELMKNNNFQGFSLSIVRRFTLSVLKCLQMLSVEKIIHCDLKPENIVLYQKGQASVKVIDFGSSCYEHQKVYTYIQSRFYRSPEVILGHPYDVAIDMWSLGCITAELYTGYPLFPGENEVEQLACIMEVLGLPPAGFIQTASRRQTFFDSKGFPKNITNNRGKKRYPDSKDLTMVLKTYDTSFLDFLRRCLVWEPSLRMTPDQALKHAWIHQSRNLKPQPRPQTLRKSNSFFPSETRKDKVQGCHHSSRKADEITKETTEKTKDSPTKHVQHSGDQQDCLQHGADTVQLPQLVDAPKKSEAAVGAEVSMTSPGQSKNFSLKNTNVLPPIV
Kind of experiment: Inhibition of human DYRK4 at 500 nM by HotSpot assay relative to control.

Experiment [2] addresses Macrophage colony-stimulating factor 1 receptor (Homo sapiens) (UniProt P07333). Put plainly: Inhibition of human FMS at 500 nM by HotSpot assay relative to control.
The target in experiment [3] is T2, Serine/threonine-protein kinase Nek11 (Homo sapiens) (UniProt Q8NG66).
T2 sequence (whole entry): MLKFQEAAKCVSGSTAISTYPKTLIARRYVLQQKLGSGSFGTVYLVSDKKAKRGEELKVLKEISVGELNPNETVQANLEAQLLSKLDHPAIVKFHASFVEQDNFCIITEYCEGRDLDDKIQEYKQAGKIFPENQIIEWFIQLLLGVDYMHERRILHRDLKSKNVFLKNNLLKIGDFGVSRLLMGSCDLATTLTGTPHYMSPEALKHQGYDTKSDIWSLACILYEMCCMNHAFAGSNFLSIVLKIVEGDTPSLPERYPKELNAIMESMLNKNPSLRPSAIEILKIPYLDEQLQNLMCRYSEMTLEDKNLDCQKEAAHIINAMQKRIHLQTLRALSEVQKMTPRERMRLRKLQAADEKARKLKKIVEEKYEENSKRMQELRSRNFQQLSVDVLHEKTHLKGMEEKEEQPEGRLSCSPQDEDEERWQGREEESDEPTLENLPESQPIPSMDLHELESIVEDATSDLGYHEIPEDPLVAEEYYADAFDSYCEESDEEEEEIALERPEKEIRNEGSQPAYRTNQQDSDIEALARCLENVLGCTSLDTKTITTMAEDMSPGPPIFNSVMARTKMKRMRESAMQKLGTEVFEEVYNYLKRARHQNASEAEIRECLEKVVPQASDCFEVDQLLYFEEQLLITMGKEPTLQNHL
Kind of experiment: Inhibition of human NEK11 at 500 nM by HotSpot assay relative to control.

In experiment [4] the target is Ribosomal protein S6 kinase beta-2 (Homo sapiens) (UniProt Q9UBS0). Kind of experiment: Inhibition of human RPS6KB2 at 500 nM by HotSpot assay relative to control.
Experiment [5] deals with Serine/threonine-protein kinase PAK 1 (Homo sapiens) (UniProt Q13153). Put plainly: Inhibition of human PAK1 at 500 nM by HotSpot assay relative to control.
The target in experiment [6] is T3, Serine/threonine-protein kinase D1 (Homo sapiens) (UniProt Q15139).
T3 sequence (whole entry): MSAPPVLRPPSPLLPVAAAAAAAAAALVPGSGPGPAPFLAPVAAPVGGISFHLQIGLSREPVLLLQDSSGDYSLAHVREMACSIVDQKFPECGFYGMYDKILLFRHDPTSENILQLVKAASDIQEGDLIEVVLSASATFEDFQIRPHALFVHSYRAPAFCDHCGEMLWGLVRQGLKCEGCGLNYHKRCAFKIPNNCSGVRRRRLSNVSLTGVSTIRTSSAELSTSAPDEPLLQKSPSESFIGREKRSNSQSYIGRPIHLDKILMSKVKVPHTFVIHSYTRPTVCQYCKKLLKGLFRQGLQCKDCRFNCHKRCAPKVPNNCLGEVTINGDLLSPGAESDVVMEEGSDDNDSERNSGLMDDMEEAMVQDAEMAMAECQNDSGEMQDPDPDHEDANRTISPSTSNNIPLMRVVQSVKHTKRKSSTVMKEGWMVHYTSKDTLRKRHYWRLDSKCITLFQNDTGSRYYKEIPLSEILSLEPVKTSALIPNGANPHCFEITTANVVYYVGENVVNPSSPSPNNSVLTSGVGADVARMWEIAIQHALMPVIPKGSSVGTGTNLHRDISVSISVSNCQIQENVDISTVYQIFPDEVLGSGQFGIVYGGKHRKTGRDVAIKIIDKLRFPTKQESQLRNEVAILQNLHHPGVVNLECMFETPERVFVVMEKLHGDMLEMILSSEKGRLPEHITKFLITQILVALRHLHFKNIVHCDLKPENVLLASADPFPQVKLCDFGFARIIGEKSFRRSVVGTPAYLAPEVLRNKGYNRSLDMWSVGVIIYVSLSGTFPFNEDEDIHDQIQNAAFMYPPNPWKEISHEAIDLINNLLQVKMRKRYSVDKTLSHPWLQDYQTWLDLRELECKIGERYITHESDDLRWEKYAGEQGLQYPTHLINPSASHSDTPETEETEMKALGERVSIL
Kind of experiment: Inhibition of human PRKD1 at 500 nM by HotSpot assay relative to control.

For experiment [7], the target named is Ribosomal protein S6 kinase alpha-2 (Homo sapiens) (UniProt Q15349). Put plainly: Inhibition of human RSK3 at 500 nM by HotSpot assay relative to control.
The target in experiment [8] is SRSF protein kinase 1 (Homo sapiens) (UniProt Q96SB4). Put plainly: Inhibition of human SRPK1 at 500 nM by HotSpot assay relative to control.
Sequence of SRSF protein kinase 1 (Homo sapiens) (Q96SB4 whole entry): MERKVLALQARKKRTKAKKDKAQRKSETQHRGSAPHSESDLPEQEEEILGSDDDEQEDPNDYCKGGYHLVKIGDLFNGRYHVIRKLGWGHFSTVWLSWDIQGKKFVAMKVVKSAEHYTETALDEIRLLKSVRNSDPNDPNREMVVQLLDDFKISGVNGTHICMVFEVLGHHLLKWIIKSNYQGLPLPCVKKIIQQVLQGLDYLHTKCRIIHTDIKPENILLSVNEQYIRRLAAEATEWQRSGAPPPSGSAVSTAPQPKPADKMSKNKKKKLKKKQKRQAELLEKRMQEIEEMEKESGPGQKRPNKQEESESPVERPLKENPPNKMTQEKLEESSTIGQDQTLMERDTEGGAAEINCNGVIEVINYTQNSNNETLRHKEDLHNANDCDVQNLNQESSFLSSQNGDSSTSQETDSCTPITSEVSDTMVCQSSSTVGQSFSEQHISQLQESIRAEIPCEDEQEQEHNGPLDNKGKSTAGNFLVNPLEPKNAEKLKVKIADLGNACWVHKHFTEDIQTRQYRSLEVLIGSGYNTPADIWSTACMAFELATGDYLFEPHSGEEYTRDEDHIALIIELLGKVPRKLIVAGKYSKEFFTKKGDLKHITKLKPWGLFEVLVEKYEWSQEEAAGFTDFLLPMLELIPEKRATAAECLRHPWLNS

Sequence of Macrophage colony-stimulating factor 1 receptor (Homo sapiens) (P07333 whole entry): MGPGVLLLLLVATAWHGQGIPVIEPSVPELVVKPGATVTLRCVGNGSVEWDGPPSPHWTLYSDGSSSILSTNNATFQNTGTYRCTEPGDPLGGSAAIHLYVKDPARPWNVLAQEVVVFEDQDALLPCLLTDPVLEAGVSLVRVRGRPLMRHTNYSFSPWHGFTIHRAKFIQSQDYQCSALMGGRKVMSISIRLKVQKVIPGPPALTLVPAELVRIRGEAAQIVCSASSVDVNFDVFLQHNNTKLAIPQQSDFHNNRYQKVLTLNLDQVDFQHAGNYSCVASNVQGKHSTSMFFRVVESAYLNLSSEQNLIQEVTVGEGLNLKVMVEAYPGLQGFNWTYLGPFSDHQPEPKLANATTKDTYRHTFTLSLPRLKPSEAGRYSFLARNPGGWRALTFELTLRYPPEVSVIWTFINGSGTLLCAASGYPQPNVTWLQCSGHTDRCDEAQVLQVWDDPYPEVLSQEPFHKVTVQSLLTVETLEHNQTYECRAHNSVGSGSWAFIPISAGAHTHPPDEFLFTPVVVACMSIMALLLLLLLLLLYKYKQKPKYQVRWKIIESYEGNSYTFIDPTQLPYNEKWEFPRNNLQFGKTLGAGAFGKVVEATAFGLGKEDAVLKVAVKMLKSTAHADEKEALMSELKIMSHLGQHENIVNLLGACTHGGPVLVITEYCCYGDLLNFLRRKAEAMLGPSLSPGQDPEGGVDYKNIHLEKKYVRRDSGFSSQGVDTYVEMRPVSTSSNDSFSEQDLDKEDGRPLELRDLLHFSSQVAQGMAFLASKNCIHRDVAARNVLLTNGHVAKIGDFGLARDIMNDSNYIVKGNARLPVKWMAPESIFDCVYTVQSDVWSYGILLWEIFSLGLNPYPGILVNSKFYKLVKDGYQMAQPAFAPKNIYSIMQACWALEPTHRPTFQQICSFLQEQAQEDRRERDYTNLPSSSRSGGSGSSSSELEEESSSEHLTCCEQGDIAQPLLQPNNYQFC
Sequence of Ribosomal protein S6 kinase alpha-2 (Homo sapiens) (Q15349 whole entry): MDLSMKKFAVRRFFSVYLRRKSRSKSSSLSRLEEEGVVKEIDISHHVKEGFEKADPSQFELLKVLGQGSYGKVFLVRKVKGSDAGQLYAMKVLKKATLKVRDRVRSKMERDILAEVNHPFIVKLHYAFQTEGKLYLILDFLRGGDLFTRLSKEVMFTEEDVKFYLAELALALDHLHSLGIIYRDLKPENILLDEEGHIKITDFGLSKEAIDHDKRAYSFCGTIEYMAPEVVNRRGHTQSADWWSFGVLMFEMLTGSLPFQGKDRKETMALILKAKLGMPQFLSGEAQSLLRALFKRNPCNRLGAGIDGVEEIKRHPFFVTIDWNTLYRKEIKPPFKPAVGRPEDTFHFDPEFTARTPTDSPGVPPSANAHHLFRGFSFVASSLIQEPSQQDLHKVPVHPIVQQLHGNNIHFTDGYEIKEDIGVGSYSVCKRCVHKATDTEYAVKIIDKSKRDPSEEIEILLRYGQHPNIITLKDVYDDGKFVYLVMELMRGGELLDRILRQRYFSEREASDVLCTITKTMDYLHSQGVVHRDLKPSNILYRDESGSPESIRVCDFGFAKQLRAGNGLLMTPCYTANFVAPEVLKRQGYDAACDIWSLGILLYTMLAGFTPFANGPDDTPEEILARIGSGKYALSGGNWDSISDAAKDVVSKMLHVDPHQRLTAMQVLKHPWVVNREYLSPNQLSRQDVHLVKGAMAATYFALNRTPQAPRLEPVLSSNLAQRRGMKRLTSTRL
Sequence of Serine/threonine-protein kinase PAK 1 (Homo sapiens) (Q13153 whole entry): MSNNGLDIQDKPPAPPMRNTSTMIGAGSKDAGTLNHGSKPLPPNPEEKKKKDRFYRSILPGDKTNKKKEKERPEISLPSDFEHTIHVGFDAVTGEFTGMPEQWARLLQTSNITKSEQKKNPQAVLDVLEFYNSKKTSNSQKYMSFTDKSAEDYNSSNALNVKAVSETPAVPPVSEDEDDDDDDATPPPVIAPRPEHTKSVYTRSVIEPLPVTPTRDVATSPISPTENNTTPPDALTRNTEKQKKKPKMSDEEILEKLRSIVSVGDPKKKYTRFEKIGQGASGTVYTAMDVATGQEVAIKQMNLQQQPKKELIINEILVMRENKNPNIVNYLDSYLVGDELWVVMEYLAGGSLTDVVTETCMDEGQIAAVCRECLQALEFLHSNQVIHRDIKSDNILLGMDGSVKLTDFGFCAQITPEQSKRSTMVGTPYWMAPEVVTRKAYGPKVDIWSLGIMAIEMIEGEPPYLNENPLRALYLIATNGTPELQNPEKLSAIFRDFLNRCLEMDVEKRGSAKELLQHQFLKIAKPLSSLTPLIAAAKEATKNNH
Sequence of Ribosomal protein S6 kinase beta-2 (Homo sapiens) (Q9UBS0 whole entry): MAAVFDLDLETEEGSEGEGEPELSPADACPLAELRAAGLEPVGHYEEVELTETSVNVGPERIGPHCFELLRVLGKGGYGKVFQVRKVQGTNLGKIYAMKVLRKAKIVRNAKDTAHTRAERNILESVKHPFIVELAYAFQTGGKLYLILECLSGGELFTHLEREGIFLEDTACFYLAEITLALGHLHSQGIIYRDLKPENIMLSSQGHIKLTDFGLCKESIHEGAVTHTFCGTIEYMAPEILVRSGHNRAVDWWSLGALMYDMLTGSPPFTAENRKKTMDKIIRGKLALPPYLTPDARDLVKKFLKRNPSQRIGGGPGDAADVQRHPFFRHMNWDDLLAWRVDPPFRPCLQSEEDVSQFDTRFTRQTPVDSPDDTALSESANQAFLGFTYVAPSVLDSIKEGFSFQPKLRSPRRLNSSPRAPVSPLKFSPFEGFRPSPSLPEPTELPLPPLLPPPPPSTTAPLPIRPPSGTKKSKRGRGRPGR

For the compound `Oc1n[nH]c2nnc(-c3c(-c4ccccc4)nn4ccccc34)cc12`, the inhibition was 4.52% in experiment [1]; 5% in experiment [2]; -4.37% in experiment [3]; -8.15% in experiment [4]; 7.2% in experiment [5]; -0.59% in experiment [6]. Besides, the inhibition was -4.14% in experiment [7] and 10.4% in experiment [8].
For the compound `Nc1n[nH]c2nnc(-c3c(-c4ccccc4)nn4ccccc34)cc12`, the inhibition in experiment [1] was 4.67%; in experiment [2], 3.19%; in experiment [3] it was 4.86%; in experiment [4], -4.11%; in experiment [5] it was 8.08%; in experiment [6] it was 31.6%. Also, the values for the inhibition in experiment [7] and in experiment [8] were 3.51% and 16.3%, respectively.
